The values below come from patent US20190119348A1, “PARATHYROID HORMONE RECEPTOR 1 ANTAGONIST AND INVERSE AGONIST POLYPEPTIDES AND METHODS OF THEIR USE” (The General Hospital Corporation, priority 2016, published 2019).

For one test, the target named is T1, PTHR1 (hPTHR1) (Homo sapiens, UniProt Q03431).
T1 construct: expressed in transfected cells; host or cells: GP-2.3 (HEK-293 stably transfected with hPTHR1 and GloSensor)
T1 sequence (Q03431 27-593): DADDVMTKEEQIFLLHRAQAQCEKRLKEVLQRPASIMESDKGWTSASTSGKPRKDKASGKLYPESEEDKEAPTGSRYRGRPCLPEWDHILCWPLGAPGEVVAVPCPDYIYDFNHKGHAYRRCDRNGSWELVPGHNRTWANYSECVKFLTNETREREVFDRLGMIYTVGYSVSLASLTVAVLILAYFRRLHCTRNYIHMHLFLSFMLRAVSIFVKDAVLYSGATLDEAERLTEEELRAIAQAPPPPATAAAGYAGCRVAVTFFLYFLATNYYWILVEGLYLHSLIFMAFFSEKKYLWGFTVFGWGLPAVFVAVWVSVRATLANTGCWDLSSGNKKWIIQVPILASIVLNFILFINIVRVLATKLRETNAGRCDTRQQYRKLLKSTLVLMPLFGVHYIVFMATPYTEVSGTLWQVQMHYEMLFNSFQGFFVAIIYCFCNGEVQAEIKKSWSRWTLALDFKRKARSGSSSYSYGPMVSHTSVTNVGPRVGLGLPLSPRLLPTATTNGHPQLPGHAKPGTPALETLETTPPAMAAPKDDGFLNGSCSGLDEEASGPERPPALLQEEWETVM
The experiment in a line: Radioligand competition binding in GP-2.3 cells. Conditions: radioligand competition. How it is done:
(§1) Intact cell binding reactions were performed in 96-well plates, and, following incubation, the cells were lysed with 1N NaOH, and the lysate was counted for gamma radiation. For membrane dissociation assays, reactions were assembled in 15 cc tubes, and, at times following membrane addition (t=0), aliquots were withdrawn and filtered through a well of a vacuum filtration 96-well plate, rinsed, and, after washing, the filters were removed and counted for gamma irradiation. […] Curves were fit to the data using a four-parameter sigmoidal dose-response equation.
(§2) Pharmacological properties of the ligands were assessed in cells expressing the PTHR1 and the GloSensor™ cAMP reporter. The assays used GP-2.3 cells, derived from HEK293 cells by stable transfection with the hPTHR1 and GloSensor™, as well as SGS-72 cells, which are derived from the human osteosarcoma cell line, Saos-2, in which is endogenously expressed the hPTHR1, by stable transfection with GloSensor™. Binding of representative polypeptides to the PTHR1 was assessed in GP-2.3 cells by radioligand competition methods (FIGS. 1A and 1B, Table 3).
The assays were performed in GP-2.3 cells with the two tracer ^125I-radioligands shown; values are half-maximal inhibitory concentration (pIC50) and corresponding nanomolar value (below) derived from curve fitting ligand dose-response data. Data are means of four experiments.
(In general: Loss of bound radioactivity is the signal in a displacement assay; it reports binding, not function.)

A further test concerns the target T2, endogenous hPTHR1 (Homo sapiens, UniProt Q03431).
T2 construct: Saos-2, in which is endogenously expressed the hPTHR1; endogenous in cells
T2 sequence (Q03431 27-593): T1 sequence (Q03431 27-593)
The experiment in a line: Antagonism of PTH(1-34)- and PTHrP(1-36)-induced cAMP response (GloSensor) in SGS-72 cells. The class given is cell-based. How it is done:
cAMP signaling was assessed in the HEK293-derived or SaOS2-derived cell lines stably expressing the luciferase-based GloSensorTM cAMP reporter ([…] al., Paper presented at: Novel Signaling Mechanisms and Bone Cell Biology 2014; Binkowski et al., Methods in molecular biology. 756:263-271). HEK-293 cells were further transfected to stably express the hPTHR1, hPTHR1-H223R, or hPTHR1-T410P. The cells were seeded into 96-well white plates and were assayed 24 to 48 hours post-confluency. Assays were performed at room temperature in CO2-independent culture media (Life Technologies, Corp., Carlsbad, Calif.) containing 0.1% BSA (CIDB). The cells were pre-loaded with luciferin (0.5 mM in CIDB) for 15 minutes, then PTH peptides were added at varying concentrations. cAMP-dependent luminescence was measured at two-minute intervals using a PerkinElmer Envision plate reader. The time at which maximum luminescence (cps) observed with agonist alone, typically at 10-20 minutes after agonist addition, was used to obtain data from wells containing antagonist with or without agonist, to thus generate antagonist ligand dose-response curves. The resulting cps values were then plotted against ligand concentration using GraphPad Prism 7.0 software and a four-parameter logistics curve fitting equation, which yielded parameters of inhibitory potency (pIC50). Pharmacological properties of the ligands were assessed in cells expressing the PTHR1 and the GloSensorTM cAMP reporter. The assays used GP-2.3 cells, derived from HEK293 cells by stable transfection with the hPTHR1 and GloSensorTM, as well as SGS-72 cells, which are derived from the human osteosarcoma cell line, Saos-2, in which is endogenously expressed the hPTHR1, by stable transfection with GloSensorTM. Binding of representative polypeptides to the PTHR1 was assessed in GP-2.3 cells by radioligand competition methods (FIGS. 1A and 1B, Table 3). […] In Table 5, antagonist assays were performed in SGS-72 cells (SaOS2 cells with stable GloSensorTM cAMP reporter) at room temperature. […] The mean (±sem) concentration of antagonist that inhibited the maximum agonist-induced response observed in the absence of antagonist (at 40 minutes) is reported in units of -log M (pIC50), and the corresponding nanomolar value is shown below each pIC50 value. Data are means of the number of seven experiments. The PTH(1-34)-induced maximum luminescence was 500,000 cps and the basal was 5,000 cps. TMR indicates Lys13 modified at epsilon amino function with TMR. The data are illustrated in FIG. 7A. […] Date are means (±SEM) of the number of separate experiments indicated by n.

For test [1], the target named is T3, PTHR1 (Homo sapiens, UniProt Q03431).
T3 construct: expressed in transfected cells; host or cells: GP-2.3 (HEK-293 stably transfected with hPTHR1 and GloSensor)
T3 sequence (Q03431 27-593): T1 sequence (Q03431 27-593)
The experiment in a line: Residual agonist activity, cAMP luminescence in GP-2.3 cells. The settings on record: ligands applied directly to GP-2.3 cells. The class given is cell-based. The procedure: (§3) cAMP signaling was assessed in the HEK293-derived or SaOS2-derived cell lines stably expressing the luciferase-based GloSensor™ cAMP reporter (Hattersley et al., Paper presented at: Novel Signaling Mechanisms and Bone Cell Biology 2014; Binkowski et al., Methods in molecular biology. 756:263-271). HEK-293 cells were further transfected to stably express the hPTHR1, hPTHR1-H223R, or hPTHR1-T410P. The cells were seeded into 96-well white plates and were assayed 24 to 48 hours post-confluency. Assays were performed at room temperature in CO2-independent culture media (Life Technologies, Corp., Carlsbad, Calif.) containing 0.1% BSA (CIDB). The cells were pre-loaded with luciferin (0.5 mM in CIDB) for 15 minutes, then PTH peptides were added at varying concentrations. cAMP-dependent luminescence was measured at two-minute intervals using a PerkinElmer Envision plate reader. The time at which maximum luminescence (cps) observed with agonist alone, typically at 10-20 minutes after agonist addition, was used to obtain data from wells containing antagonist with or without agonist, to thus generate antagonist ligand dose-response curves. The resulting cps values were then plotted against ligand concentration using GraphPad Prism 7.0 software and a four-parameter logistics curve fitting equation, which yielded parameters of inhibitory potency (pIC50).

Test [2] deals with T3, PTHR1. The experiment in a line: Antagonism of PTH(1-34)-induced cAMP response (GloSensor) in GP-2.3 cells. The format is cell-based. The settings on record: PTH(1-34) 1 nM. The procedure:
as §3, §2
z,999 concentration of antagonist that inhibited the maximum response to PTH(1-34)-induced in the absence of antagonist (at ˜40 minutes) is reported in units of -log M (pIC50), and the corresponding nanomolar value is shown below each pIC50 value. Data are means of the number of experiments indicated (n). The PTH(1-34)-induced maximum luminescence was ˜80,000 cps and the basal was ˜1,000 cps. TMR indicates Lys13 modified at epsilon amino function with TMR, P vs. inhibition by dW12,Y34-bPTH(7-34).

For test [3], the target named is T3, PTHR1. The experiment in a line: Confocal microscopy of TMR-ligand internalization in GP-2.3 cells. The format is cell-based. The settings on record: 15 minutes after ligand addition (100 nM). The procedure: Confocal fluorescence microscopy images were acquired using Olympus FV-1000 MPE confocal system (Center Valley, Pa. 18034), performed by the Photopathology Core facility of the Wellman Center for Photomedicine at the Massachusetts General Hospital. Images were captured with a 40× (LUMPLFL 0.8NA WD 3.3 mm) water-immersion objective, and with 405 nm and 559 nm excitation lasers, at a resolution of 1024×1024.
The cells were cultured on glass cover-slips in 24-well plates to ˜75% of confluency, then treated with PTH^TMR ligand (100 nM) in Hank's balanced salts buffer with 0.1% BSA (HBB) for 15 minutes at room temperature, then rinsed thrice with HBB, fixed with 4% formalin for 5 minutes, mounted with vector-shield containing DAPI on a glass microscope slide, viewed on the microscope, and digitally imaged.

The target in test [4] is T3, PTHR1. Kind of test: PTHR1 binding kinetics (dissociation) in GP-2.3 cell membranes. The procedure:
as §1, with “Ligand binding to the PTH1 R was assessed in intact GP-2.3 cells or membranes prepared from GP-2.3 cells using a ^125I-PTH peptide analog as tracer radioligand and were incubated at room temperature for 90 minutes. Intact” for “Intact”

Where two headings read alike, the source gives them in different places. Where a SMILES comes first, the peptide text is derived from it. [ ]: non-standard residue; d: D form. The star is where a group is joined. 5TAMRA = CN(C)c1ccc2c(c1)Oc1cc(N(C)C)ccc1C21OC(=O)c2cc(C(=O)*)ccc21

In the case of `CC[C@H](C)[C@H](N)C(=O)N[C@@H](CCC(N)=O)C(=O)N[C@@H](CC(C)C)C(=O)N[C@@H](CCSC)C(=O)N[C@@H](Cc1c[nH]cn1)C(=O)N[C@@H](CCC(N)=O)C(=O)N[C@@H](CCCNC(=N)N)C(=O)N[C@@H](C)C(=O)N[C@@H](CCCCN)C(=O)N[C@@H](Cc1c[nH]c2ccccc12)C(=O)N[C@H](C(=O)N[C@@H](CCC(N)=O)C(=O)N[C@@H](CC(=O)O)C(=O)N[C@@H](C)C(=O)N[C@@H](CCCNC(=N)N)C(=O)N[C@@H](CCCNC(=N)N)C(=O)N[C@@H](CCCNC(=N)N)C(=O)N[C@@H](C)C(=O)N[C@@H](Cc1ccccc1)C(=O)N[C@@H](CC(C)C)C(=O)N[C@@H](Cc1c[nH]cn1)C(=O)N[C@@H](CCCCN)C(=O)N[C@@H](CC(C)C)C(=O)N[C@H](C(=O)N[C@@H](C)C(=O)N[C@@H](CCC(=O)O)C(=O)N[C@H](C(=O)N[C@@H](Cc1c[nH]cn1)C(=O)N[C@H](C(=O)N[C@@H](C)C(=O)N[C@@H](CCC(=O)O)C(=O)N[C@H](C(N)=O)[C@@H](C)CC)[C@@H](C)O)[C@@H](C)CC)[C@@H](C)CC)[C@@H](C)CC` [compound 1950, LA-PTH(5-36)] (H-IQLMHQRAKWIQDARRRAFLHKLIAEIHTAEI-NH2; N-terminus assumed), the “apparent PTHR1 affinity compared with dTrp^12-PTH(7-34)-1894” value on PTHR1 (hPTHR1) was “at least as strong”. Further, the entries for the “fold more effective inhibition than dTrp^12-PTH(7-34)-1894” value at endogenous hPTHR1 (PTH(1-34) 0.3 nM) and at PTHR1 [2] were roughly 30 fold and “five”, respectively. Besides, the IC50 is 1 nM at endogenous hPTHR1 (antagonist pre-treatment 10 minutes, PTHrP(1-36) 0.3 nM, seven experiments, read-out: corresponding nanomolar value vs. PTHrP(1-36) (Table 5)); 0.871 nM on endogenous hPTHR1 (antagonist pre-treatment 10 minutes, PTHrP(1-36) 0.3 nM, seven experiments, read-out: pIC50 vs. PTHrP(1-36) (Table 5) (converted)); 1 nM on endogenous hPTHR1 (corresponding nanomolar value vs. PTH(1-34) (Table 5), antagonist pre-treatment 10 minutes, PTH(1-34) 0.3 nM, seven experiments); 2.51 nM against endogenous hPTHR1 (pIC50, inhibition of cAMP signal induced by PTH(1-34), PTH(1-34) 0.3 nM); 0.832 nM on endogenous hPTHR1 (pIC50 vs. PTH(1-34) (Table 5), antagonist pre-treatment 10 minutes, PTH(1-34) 0.3 nM, seven experiments); 100 nM against PTHR1 [2] (pIC50, inhibition of cAMP signal induced by PTH(1-34)). The “residual agonist activity compared with dTrp^12-PTH(7-34)-1894” value on PTHR1 [1] was “less residual agonist activity”.

For `CC[C@H](C)[C@H](N)C(=O)N[C@@H](CCC(N)=O)C(=O)N[C@@H](CC(C)C)C(=O)N[C@@H](CCSC)C(=O)N[C@@H](Cc1c[nH]cn1)C(=O)N[C@@H](CCC(N)=O)C(=O)N[C@@H](CCCNC(=N)N)C(=O)N[C@H](Cc1c[nH]c2ccccc12)C(=O)N[C@@H](CCCCNC(=O)c1ccc2c(c1)C(=O)OC21c2ccc(N(C)C)cc2Oc2cc(N(C)C)ccc21)C(=O)N[C@@H](Cc1c[nH]c2ccccc12)C(=O)N[C@H](C(=O)N[C@@H](CCC(N)=O)C(=O)N[C@@H](CC(=O)O)C(=O)N[C@@H](C)C(=O)N[C@@H](CCCNC(=N)N)C(=O)N[C@@H](CCCNC(=N)N)C(=O)N[C@@H](CCCNC(=N)N)C(=O)N[C@@H](C)C(=O)N[C@@H](Cc1c[nH]c2ccccc12)C(=O)N[C@@H](CC(C)C)C(=O)N[C@@H](Cc1c[nH]cn1)C(=O)N[C@@H](CCCCN)C(=O)N[C@@H](CC(C)C)C(=O)N[C@H](C(=O)N[C@@H](C)C(=O)N[C@@H](CCC(=O)O)C(=O)N[C@H](C(=O)N[C@@H](Cc1c[nH]cn1)C(=O)N[C@H](C(=O)N[C@@H](C)C(=O)N[C@@H](CCC(=O)O)C(=O)N[C@H](C(N)=O)[C@@H](C)CC)[C@@H](C)O)[C@@H](C)CC)[C@@H](C)CC)[C@@H](C)CC` [compound 1953, TMR-dW12, W23-LA-PTH(5-36)] (H-IQLMHQR[dW]K(5TAMRA)WIQDARRRAWLHKLIAEIHTAEI-NH2; N-terminus assumed), at PTHR1 [3], the “ligand internalization (TMR fluorescence)” value is given as “did not internalize”.

For the molecule “^125I-Nle^8, dTrp^12, Trp^23, Tyr^36-LA-PTH(5-36)-1954”, the “dissociation from the PTHR1 compared with ^125I-Tyr^36-PTHrP(5-36)-836 and ^125I-M-PTH(1-15)-779” value on PTHR1 [4] is given as “dissociated more slowly”.
